Data taken from ChEMBL document CHEMBL1150810, “Structure and neurotrophic activity of seco-prezizaane-type sesquiterpenes from Illicium merrillianum” (J Nat Prod, 2001).
Active and inactive are the calls of the source. The calls are words filed in the database; no cut-off is given here.

system: Cortical neurone; experiment: Neurotrophic activity in Sprague-Dawley rat cortical neurons assessed as promotion of neurite outgrowth at 0.1 to 10 uM; format: functional

Structure (SMILES)	Activity
C[C@@H]1CC[C@@]2(O)C13CC(=O)C1(C)C2(C)CO[C@]1(O)[C@@H]3O	Active
C[C@@H]1C[C@@H](O)[C@@]2(O)[C@@]13C[C@@]1(O)OC(OC[C@@]2(C)[C@@]1(C)O)[C@@H]3O	inactive
C[C@@H]1CC[C@@]2(O)[C@@]13C[C@@]1(O)OC(OC[C@@]2(C)[C@@]1(C)O)[C@@H]3O	inactive
C[C@@H]1CC=C2[C@@]13C[C@@]1(O)OC(OC[C@@]2(C)[C@@]1(C)O)[C@@H]3O	inactive
CC1=CC[C@]2(O)[C@@]3(C)COC4O[C@](O)(C[C@@]12[C@H]4O)[C@]3(C)O	inactive
C[C@@H]1CC[C@@]2(O)C13CC(=O)C1(C)C2(C)CO[C@]1(OC(=O)c1ccccc1)[C@@H]3O	inactive
